Marks after values point to notes of the source that are not given here.

In series [1] the test system is EAE induced by PLP139-151. Put plainly: Example G: Experimental Autoimmune Encephalitis (EAE) mouse model of multiple sclerosis. The class given is in vivo. The conditions noted are these: for EAE Score on Day 46: 60 μmol/kg by oral gavage from Day 14, score 0-5; for EAE Score on Day 14 (Before Treatment): baseline, score 0-5.
The subject of another series is THP-1 cells. Put plainly: Example D: LPS-triggered THP-1 cell death assay, acute/5-hour and chronic/48-hour. The class given is cell-based, Human. The conditions noted are these: 10 ng/ml LPS, 0.1 μM test compound, 48 hours. As to the method: Compounds of the invention were tested at 0.1 μM versus AC in the LPS-triggered THP-1 cell death assay. Both acute/5-hour and chronic/48-hour phases of cell death were assessed. Compounds were screened in batches with DMSO as the negative control and AC as the high activity control.

Series [2] concerns PC-3 prostate cancer cells. Put plainly: Example T: sensitisation of PC-3 cells to doxorubicin, oxaliplatin, paclitaxel or vincristine, Wst1. The conditions noted are these: PC-3 cells, 72 hours; for Doxorubicin 3.5 μM: percent cell survival / Oxaliplatin 100 μM: percent cell survival / Paclitaxel 50 μM: percent cell survival / Vincristine 100 nM: percent cell survival: chemotherapy agent alone normalized to 100%. It is filed as cell-based, human.

Series [3] deals with 4T1 mouse mammary breast cancer cells. Put plainly: Example O: syngeneic 4T1 breast cancer growth in Balb/C mice. The class given is in vivo. The conditions noted are these: 4T1 in female Balb/C mice. As to the method: Cancer models in mice generally either involve syngeneic murine tumors in immunocompetent mice or xenografts of human tumors in immunocompromised mice. […] Mice received test compounds by oral gavage in 1% hydroxypropylmethylcellulose from day 2 until day 30. Tumor growth was assessed by caliper measurements twice per week and tumor weight after necropsy, and body weight was also monitored. Treatment groups were: • 1. […] HPMC) • 2. CI (120 μmol/kg/day) • 3. BA (120 μmol/kg/day) • 4. CP (120 μmol/kg/day) • 5. CQ (120 μmol/kg/day) • 6. AA (120 μmol/kg/day) • 7. AC (120 μmol/kg/day)

The subject of series [4] is PC3 human prostate cancer cells. Put plainly: Example S: in vitro anticancer screen, PC-3 cells, Wst1. The class given is cell-based. The conditions noted are these: Homo sapiens, PC-3, approximately 20 hours, Wst1, read-out: PC-3, percent of cancer cell survival relative to vehicle treated cells. The procedure, abridged: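 PC-3 cells, 2×10^4 cells/well, exposed ~20 h to vehicle or compound at 0.4, 0.5 or 2.5 μM as specified per compound. Wst1 dye added for 2 h; absorbance 450 nm (reference 630 nm), triplicates. Values are percent cell survival versus vehicle-treated cells.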

Series [5] relates to 4T1 murine breast cancer cells. Put plainly: Example S: in vitro anticancer screen, 4T1 cells, Wst1. The class given is cell-based, mouse. The conditions noted are these: Mus musculus, 4T1, 18 h, 18 hr, Wst1; for viability at 1 µM: read-out: 4T1 1 μM, percent of cancer cell survival relative to vehicle treated cells; for viability at 5 µM: read-out: 4T1 5 μM, percent of cancer cell survival relative to vehicle treated cells. The procedure, abridged:
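4T1 cells seeded at 1×10^4/well were exposed to compound at 1 μM or 5 μM for 18 hr after plating. Wst1 tetrazolium dye was then added for about 2 hr and absorbance read at 450 nm (reference 630 nm). Values are percent survival relative to vehicle-treated cells.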

Series [6] deals with TPA induced chronic skin inflammation. Put plainly: Example E: TPA induced chronic skin inflammation mouse model, ear thickness. The class given is in vivo. The conditions noted are these: day 22, 0.05 mg/ear daily topical from day 7, TPA-treated mice. The source says: Objective: To evaluate the anti-inflammatory properties of compounds of the invention in a 12-O-tetradecanoylphorbol-13-acetate (TPA) induced chronic skin inflammation mouse model.
Topically applied phorbol esters such as TPA induce skin inflammation involving edema, macrophage and T cell infiltration and epidermal hyperplasia (Alford et al., 1992), and this system has been used as an animal model for dermatitis, mimicking aspects of human inflammatory skin disorders. TPA is also known as a tumor promoter, so that agents which inhibit hyperproliferative or angiogenic actions of TPA may inhibit tumor promotion.
Drug formulations: Compound AC was dissolved in isopropyl myristate:propylene glycol (1:1)+0.9% DMSO at the indicated concentrations. TPA was dissolved in acetone:water (99:1). Dexamethasone (0.06%) was dissolved in normal saline.
Mice: HSD-ICR(CD-1R) female mice at 8-10 weeks of age were used in this experiment.
Experimental Design: Mice were placed into six groups of 10 mice each. 20 μL of 0.01% TPA was administered to each ear on days 0, 2, 4, 7, 9, 11, 13, 15, 18, 20, and 22. 20 μL of AC at various concentrations or 20 μL of dexamethasone solution was applied to the ears daily beginning on day 7, after inflammatory changes in ear thickness were established. Ear thickness was measured with calipers every three days.

For series [7], the system named is imiquimod-induced dermatitis. As to the method:
Topical imiquimod (IMQ), a toll-like receptor agonist, has been established as a model of Inflammatory skin diseases including psoriasis and atopic dermatitis. Dermal inflammatory changes and gene expression in mice treated with topical imiquimod mimic human psoriasis and dermatitis (van der Fits et al., 2009; Swindell et al., 2011). The effect of a set of compounds of the invention were tested in a mouse model of imiquimod-induced dermatitis, with topical tacrolimus and dexamethasone as comparators for assessing safety and efficacy relative to standard agents used to treat dermatitis in humans.
Commercial 0.1% tacrolimus ointment (ProTopic™[…]) was also used as an active comparator. Petrolatum containing 10% ethanol was used as a control treatment.
Female Balb/C mice (8 weeks old) were randomized and divided into groups of 5 animals each. Polyethylene collars were affixed to the mice to prevent them from easily scratching their ears. 5% imiquimod was applied to both ears of each mouse (20 microliters per ear) daily for 5 days, and then every other day for the full duration of the study. […] On day 7 after initiation of imiquimod, treatment with topical agents was started. Both ears of each mouse were treated with test ointments, with one compound per mouse.
Ear thickness and PASI assessments (Psoriasis Area and Severity Index, a standard psoriasis scoring system) were recorded twice per week throughout the study. The PASI score comprises the sum of evaluations of swelling, erythema and scaling on scales from 0 to 4; the maximum PASI score is 12, and the minimum, in unaffected skin, is 0).

On to `CCCCCCOc1ccccc1OCCNc1ccnc2ccccc12` [CP, N-{2-[2-(Hexyloxy)phenoxy]ethyl}quinolin-4-amine], for which, in series [1], the “EAE Score on Day 46” value is 1.86 ± 0.34 and the “EAE Score on Day 14 (Before Treatment)” value is on record as 0.86 ± 0.14. For the same compound, the “Viable cell percent change, Chronic/48-hour, Mean” value in the series with THP-1 cells came to 49.81%. The viability at 2.5 µM in series [2] (Homo sapiens, compound 2.5 μM alone, Wst1, vehicle = 100, read-out: No Chemo: percent cell survival) stood at 35.6%. The “Doxorubicin 3.5 μM: percent cell survival” value in series [2] (compound 2.5 μM + doxorubicin 3.5 μM) was determined as 72.4%. In series [2] (compound 2.5 μM + oxaliplatin 100 μM), the “Oxaliplatin 100 μM: percent cell survival” value worked out at 76.5%. The “Paclitaxel 50 μM: percent cell survival” value in series [2] (compound 2.5 μM + paclitaxel 50 μM) is listed as 74.5%. Besides, the “Vincristine 100 nM: percent cell survival” value in series [2] (compound 2.5 μM + vincristine 100 nM) stood at 48.2%. Also, in series [3] (120 μmol/kg/day oral gavage, day 2 to day 30), the “Final Tumor Volume” value is reported as 352 ± 114 mm^3. The “Δ BW %” value in series [3] (120 μmol/kg/day oral, final vs initial body weight) was −0.0%. The “Final Body Weight” value in series [3] (120 μmol/kg/day oral, final, in g (unit assumed)) stood at 24.1 ± 1.3. In addition, in series [3] (120 μmol/kg/day oral, initial (baseline)), the “Initial Body Weight” value is recorded as 24.1 ± 0.9 g. For the same compound, the viability at 2.5 µM in series [4] (2.5 μM) came to 35.6%. Also, in series [5], the viability at 1 µM came out at 82.6% and the viability at 5 µM was determined as 38%.
As to `CCCCCCOc1ccc(OCCCCNc2ccnc3ccccc23)cc1` [CZ, N-{4-[4-(Hexyloxy)phenoxy]butyl}quinolin-4-amine], in series [1], the “EAE Score on Day 46” value is given as 2.29 ± 0.20 and the “EAE Score on Day 14 (Before Treatment)” value was 1.00 ± 0.00. In addition, the “Viable cell percent change, Chronic/48-hour, Mean” value in the series on THP-1 cells was 53.70%. Besides, the viability at 0.4 µM in series [2] (Homo sapiens, compound 0.4 μM alone, Wst1, vehicle = 100, read-out: No Chemo: percent cell survival) was 96.7%. Further, in series [2] (compound 0.4 μM + doxorubicin 3.5 μM), the “Doxorubicin 3.5 μM: percent cell survival” value is recorded as 89.1%. In addition, in series [2] (compound 0.4 μM + oxaliplatin 100 μM), the “Oxaliplatin 100 μM: percent cell survival” value was determined as 91.1%. In addition, the “Paclitaxel 50 μM: percent cell survival” value in series [2] (compound 0.4 μM + paclitaxel 50 μM) is 101.9%. Also, the “Vincristine 100 nM: percent cell survival” value in series [2] (compound 0.4 μM + vincristine 100 nM) came to 90.3%. In addition, the viability at 0.4 µM in series [4] (0.4 μM) turned out to be 96.7%. Further, in series [5], the viability at 1 µM amounted to 50.6% and the viability at 5 µM amounted to 28.3%.
`C[C@@H]1C[C@H]2[C@@H]3CCC4=CC(=O)C=C[C@]4(C)[C@@]3(F)[C@@H](O)C[C@]2(C)[C@@]1(O)C(=O)CO` [Dexamethasone, reference compound]: the “Ear thickness (mm)” value in series [6] is 0.301 ± 0.0722 mm. The “Ear thickness, Mean ± SEM” value in series [7] (imiquimod-treated mice, topical ointment 0.06% active drug (dexamethasone 0.03%, tacrolimus 0.1%)) came out at 0.305 ± 0.111. Also, in series [7] (mouse, in vivo), the “Body Weight (mean ± SEM), Final” value was found to be 18.1 ± 0.5 g; the “Body Weight (mean ± SEM), Initial” value was determined as 20.5 ± 0.6 g; the “D BW (g)” value is −2.4 * g; the “Hair growth on the imiquimod-affected head area, in words” value is “remained hairless”. In addition, the “PASI Score, Mean ± SEM” value in series [7] (scale 0-12, topical ointment 0.06% active drug (dexamethasone 0.03%, tacrolimus 0.1%)) is 4.525 ± 0.375.
